Values joined by “and” are separate entries in the source; they are usually repeats but may differ in a detail not shown here. Equal entries are not always repeated.
Experiments:
Experiment in all cases: radiometric filter-binding kinase assay, Kinase HotSpot
Details in all cases: compound 0.5 µM; ATP 10 µM
[1] = molecular target: PLK3 (human) (UniProt Q9H4B4)
[2] = molecular target: RPS6KA4 KD2 (human) (UniProt O75676)
[3] = molecular target: MAP3K10 (human) (UniProt Q02779)
[4] = molecular target: STK25 (human) (UniProt O00506)
[5] = molecular target: MYO3B (human) (UniProt Q8WXR4)
[6] = molecular target: DSTYK (human) (UniProt Q6XUX3)
[7] = molecular target: PIM3 (human) (UniProt Q86V86)
[8] = molecular target: INSR (human) (UniProt P06213)
[9] = molecular target: LCK (human) (UniProt P06239)
[10] = molecular target: ERBB2 (human) (UniProt P04626)
[11] = molecular target: TAOK1 (human) (UniProt Q7L7X3)
[12] = molecular target: ADRBK2 (human) (UniProt P35626)
[13] = molecular target: JAK2 JH1 JH2 (human) (UniProt O60674)
[14] = molecular target: TYRO3 (human) (UniProt Q06418)
[15] = molecular target: FGR (human) (UniProt P09769)
[16] = molecular target: CAMKK2 (human) (UniProt Q96RR4)
[17] = molecular target: RPS6KA1 KD1 KD2 (human) (UniProt Q15418)
[18] = molecular target: BRAF (human) (UniProt P15056)
[19] = molecular target: OXSR1 (human) (UniProt O95747)
[20] = molecular target: CDC42BPA (human) (UniProt Q5VT25)
[21] = molecular target: CAMK1D (human) (UniProt Q8IU85)
[22] = molecular target: ADRBK1 (human) (UniProt P25098)
[23] = molecular target: WEE1 (human) (UniProt P30291)
[24] = molecular target: YES1 (human) (UniProt P07947)
[25] = molecular target: TLK2 (human) (UniProt Q86UE8)
[26] = molecular target: ULK2 (human) (UniProt Q8IYT8)
[27] = molecular target: PAK7 (human) (UniProt Q9P286)
[28] = molecular target: EPHA6 (human) (UniProt Q9UF33)
[29] = molecular target: PRKACG (human) (UniProt P22612)
[30] = molecular target: STK38 (human) (UniProt Q15208)
[31] = molecular target: CHEK1 (human) (UniProt O14757)
[32] = molecular target: NTRK2 (human) (UniProt Q16620)
[33] = molecular target: NUAK1 (human) (UniProt O60285)
[34] = molecular target: PRKG1 (human) (UniProt Q13976)
[35] = molecular target: SRMS (human) (UniProt Q9H3Y6)
[36] = molecular target: ABL2 (human) (UniProt P42684)
[37] = molecular target: LYN (human) (UniProt P07948)
[38] = molecular target: DYRK1B (human) (UniProt Q9Y463)
[39] = molecular target: EPHB4 (human) (UniProt P54760)
[40] = molecular target: DAPK2 (human) (UniProt Q9UIK4)
[41] = molecular target: ULK3 (human) (UniProt Q6PHR2)

LYN (human), sequence (P07948 whole entry, looked up): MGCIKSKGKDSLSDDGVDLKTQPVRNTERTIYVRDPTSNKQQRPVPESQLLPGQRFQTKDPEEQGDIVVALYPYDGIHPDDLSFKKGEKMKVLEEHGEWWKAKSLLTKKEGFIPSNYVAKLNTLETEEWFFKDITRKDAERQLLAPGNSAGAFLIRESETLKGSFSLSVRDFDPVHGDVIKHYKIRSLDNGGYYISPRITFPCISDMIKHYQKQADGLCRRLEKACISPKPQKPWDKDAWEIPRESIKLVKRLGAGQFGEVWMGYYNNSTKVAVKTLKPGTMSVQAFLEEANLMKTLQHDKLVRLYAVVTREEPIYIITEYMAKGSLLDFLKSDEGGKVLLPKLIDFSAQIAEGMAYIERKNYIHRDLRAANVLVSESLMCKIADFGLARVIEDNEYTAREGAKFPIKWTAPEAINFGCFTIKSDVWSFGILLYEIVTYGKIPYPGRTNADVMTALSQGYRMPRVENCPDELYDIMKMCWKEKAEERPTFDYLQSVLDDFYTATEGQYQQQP
PRKG1 (human), sequence (Q13976 whole entry, looked up): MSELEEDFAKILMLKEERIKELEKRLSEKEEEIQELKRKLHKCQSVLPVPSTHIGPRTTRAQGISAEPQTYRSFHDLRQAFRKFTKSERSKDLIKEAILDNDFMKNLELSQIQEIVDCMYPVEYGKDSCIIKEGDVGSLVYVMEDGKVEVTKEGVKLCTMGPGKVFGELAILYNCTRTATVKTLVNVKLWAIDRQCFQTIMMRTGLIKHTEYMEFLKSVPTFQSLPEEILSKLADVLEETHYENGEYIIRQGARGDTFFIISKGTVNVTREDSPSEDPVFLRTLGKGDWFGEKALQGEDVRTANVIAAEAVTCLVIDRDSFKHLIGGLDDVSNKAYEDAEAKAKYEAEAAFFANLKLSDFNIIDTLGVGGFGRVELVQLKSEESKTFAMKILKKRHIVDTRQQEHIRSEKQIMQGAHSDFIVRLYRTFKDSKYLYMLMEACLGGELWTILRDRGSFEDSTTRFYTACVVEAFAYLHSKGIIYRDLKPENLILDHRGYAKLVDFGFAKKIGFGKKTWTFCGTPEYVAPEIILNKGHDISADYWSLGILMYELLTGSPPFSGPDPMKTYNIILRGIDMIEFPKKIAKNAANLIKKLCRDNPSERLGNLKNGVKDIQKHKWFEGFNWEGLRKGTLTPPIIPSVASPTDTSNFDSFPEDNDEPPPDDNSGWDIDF
PAK7 (human), sequence (Q9P286 whole entry, looked up): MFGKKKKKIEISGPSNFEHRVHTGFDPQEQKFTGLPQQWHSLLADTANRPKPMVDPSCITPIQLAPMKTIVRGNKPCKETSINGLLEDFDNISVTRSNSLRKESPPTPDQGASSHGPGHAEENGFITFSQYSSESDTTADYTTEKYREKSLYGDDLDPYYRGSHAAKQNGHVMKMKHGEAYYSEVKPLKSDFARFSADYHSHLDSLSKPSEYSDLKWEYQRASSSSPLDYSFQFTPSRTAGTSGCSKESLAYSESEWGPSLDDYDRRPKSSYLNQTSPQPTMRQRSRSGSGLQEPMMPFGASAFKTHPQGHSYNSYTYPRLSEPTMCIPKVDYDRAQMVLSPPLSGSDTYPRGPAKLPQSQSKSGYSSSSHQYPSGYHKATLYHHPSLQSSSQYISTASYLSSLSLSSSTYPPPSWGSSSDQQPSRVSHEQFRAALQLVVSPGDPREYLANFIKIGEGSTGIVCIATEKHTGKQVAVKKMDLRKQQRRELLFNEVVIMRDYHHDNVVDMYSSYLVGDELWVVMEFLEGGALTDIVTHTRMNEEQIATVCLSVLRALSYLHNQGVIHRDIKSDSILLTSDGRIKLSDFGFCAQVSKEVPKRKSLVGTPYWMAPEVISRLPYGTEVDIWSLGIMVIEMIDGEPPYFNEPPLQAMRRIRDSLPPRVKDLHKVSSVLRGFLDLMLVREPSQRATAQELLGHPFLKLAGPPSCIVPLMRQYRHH
PLK3 (human), sequence (Q9H4B4 whole entry, looked up): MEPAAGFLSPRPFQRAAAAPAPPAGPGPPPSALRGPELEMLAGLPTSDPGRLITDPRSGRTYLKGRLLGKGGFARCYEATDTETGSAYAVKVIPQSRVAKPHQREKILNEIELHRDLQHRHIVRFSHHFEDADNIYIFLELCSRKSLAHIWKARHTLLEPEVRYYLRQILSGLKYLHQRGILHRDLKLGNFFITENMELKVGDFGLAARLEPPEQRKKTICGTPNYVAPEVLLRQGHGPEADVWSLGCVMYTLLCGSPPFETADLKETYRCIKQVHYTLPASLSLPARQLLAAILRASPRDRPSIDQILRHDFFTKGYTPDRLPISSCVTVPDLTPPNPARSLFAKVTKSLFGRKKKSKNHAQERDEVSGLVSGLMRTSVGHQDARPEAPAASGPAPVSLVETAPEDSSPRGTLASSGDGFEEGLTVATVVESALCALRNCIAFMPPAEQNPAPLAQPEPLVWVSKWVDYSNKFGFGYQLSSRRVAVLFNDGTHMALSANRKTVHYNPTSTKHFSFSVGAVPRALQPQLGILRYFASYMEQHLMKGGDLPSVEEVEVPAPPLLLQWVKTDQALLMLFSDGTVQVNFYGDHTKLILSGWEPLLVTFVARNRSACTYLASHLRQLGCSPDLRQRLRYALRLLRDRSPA
STK25 (human), sequence (O00506 whole entry, looked up): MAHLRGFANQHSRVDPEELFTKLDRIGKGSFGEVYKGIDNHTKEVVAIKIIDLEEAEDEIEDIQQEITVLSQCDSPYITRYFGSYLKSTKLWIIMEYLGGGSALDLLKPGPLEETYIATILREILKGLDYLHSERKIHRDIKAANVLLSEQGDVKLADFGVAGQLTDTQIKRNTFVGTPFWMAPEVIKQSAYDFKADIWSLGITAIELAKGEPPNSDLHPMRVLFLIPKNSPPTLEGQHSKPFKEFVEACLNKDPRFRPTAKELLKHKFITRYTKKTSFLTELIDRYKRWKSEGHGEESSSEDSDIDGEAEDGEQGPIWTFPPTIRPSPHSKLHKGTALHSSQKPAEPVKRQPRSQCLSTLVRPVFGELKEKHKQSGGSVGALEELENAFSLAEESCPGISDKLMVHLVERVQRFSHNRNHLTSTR
STK38 (human), sequence (Q15208 whole entry, looked up): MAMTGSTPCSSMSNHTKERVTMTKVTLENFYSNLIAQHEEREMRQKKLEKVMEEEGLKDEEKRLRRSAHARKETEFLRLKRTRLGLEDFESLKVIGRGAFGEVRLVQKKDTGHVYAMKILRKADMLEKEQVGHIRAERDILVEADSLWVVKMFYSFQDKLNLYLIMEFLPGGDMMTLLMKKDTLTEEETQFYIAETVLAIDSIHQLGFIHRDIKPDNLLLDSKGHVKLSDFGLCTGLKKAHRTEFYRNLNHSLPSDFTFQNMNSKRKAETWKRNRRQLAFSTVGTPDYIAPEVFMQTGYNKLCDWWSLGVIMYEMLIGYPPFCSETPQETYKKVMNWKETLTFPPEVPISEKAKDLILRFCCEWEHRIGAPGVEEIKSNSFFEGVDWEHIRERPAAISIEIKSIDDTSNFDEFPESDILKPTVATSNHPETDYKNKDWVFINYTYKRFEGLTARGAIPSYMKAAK
TAOK1 (human), sequence (Q7L7X3 whole entry, looked up): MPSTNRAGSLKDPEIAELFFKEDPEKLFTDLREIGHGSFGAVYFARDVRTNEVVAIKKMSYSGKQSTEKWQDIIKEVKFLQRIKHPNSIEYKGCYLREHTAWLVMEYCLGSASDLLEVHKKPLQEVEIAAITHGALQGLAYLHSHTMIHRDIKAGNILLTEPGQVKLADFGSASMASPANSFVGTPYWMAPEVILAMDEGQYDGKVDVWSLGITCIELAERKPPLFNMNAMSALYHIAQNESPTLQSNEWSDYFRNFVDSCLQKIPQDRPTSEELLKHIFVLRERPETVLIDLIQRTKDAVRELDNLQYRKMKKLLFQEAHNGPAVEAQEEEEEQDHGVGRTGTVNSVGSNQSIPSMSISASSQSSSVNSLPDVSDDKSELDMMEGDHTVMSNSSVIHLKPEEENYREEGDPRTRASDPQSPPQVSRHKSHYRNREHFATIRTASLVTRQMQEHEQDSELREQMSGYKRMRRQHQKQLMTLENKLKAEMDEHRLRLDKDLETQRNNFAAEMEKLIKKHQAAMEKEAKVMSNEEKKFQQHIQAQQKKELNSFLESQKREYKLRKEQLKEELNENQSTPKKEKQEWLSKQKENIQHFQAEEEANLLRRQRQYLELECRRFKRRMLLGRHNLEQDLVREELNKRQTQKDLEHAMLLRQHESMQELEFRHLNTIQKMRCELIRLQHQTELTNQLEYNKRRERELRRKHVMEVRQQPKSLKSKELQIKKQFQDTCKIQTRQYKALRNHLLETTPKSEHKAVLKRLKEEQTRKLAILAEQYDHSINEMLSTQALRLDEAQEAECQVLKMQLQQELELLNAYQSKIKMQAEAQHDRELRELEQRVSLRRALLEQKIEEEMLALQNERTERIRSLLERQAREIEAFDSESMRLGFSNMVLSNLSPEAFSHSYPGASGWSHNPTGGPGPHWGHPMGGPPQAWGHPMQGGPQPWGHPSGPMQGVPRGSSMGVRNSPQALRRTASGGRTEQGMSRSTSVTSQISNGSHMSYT

SMILES	residual activity [1] [%]	residual activity [2] [%]	residual activity [3] [%]	residual activity [4] [%]	residual activity [5] [%]	residual activity [6] [%]	residual activity [7] [%]	residual activity [8] [%]	residual activity [10] [%]	residual activity [11] [%]	residual activity [12] [%]	residual activity [13] [%]	residual activity [14] [%]	residual activity [15] [%]	residual activity [16] [%]	residual activity [17] [%]	residual activity [18] [%]	residual activity [19] [%]	residual activity [20] [%]	residual activity [21] [%]	further results
N#Cc1c(NC(=O)c2cccc3ccccc23)sc2c1CCCC2	99.6	111	85.4	95.7	107	100	95.3	98.2	97.6	106	106	103	101	98.1	80.4	86.1	95.2	103	103	120	residual activity [9]: 102%; residual activity [22]: 105%; residual activity [23]: 88.9%; residual activity [24]: 104%; residual activity [25]: 98.9%; residual activity [26]: 112%; residual activity [27]: 103%; residual activity [28]: 93.4%; residual activity [29]: 111%; residual activity [30]: 97.7%; residual activity [31]: 104%; residual activity [32]: 100%; residual activity [33]: 97.3%; residual activity [34]: 101% and 94.6%; residual activity [35]: 106%; residual activity [36]: 98.9%; residual activity [37]: 104% and 87%; residual activity [38]: 101%; residual activity [39]: 99.5%; residual activity [40]: 105%
O=c1cc(N2CCOCC2)oc2c(-c3ccccc3)cccc12	71.9	111	90.1	116	104	113	88.5	104	104	86.4	99.8	95.1	107	97.5	83.3	97.3	95.9	118	104	47.9	residual activity [41]: 103%; residual activity [22]: 106%; residual activity [23]: 76.4%; residual activity [24]: 101%; residual activity [25]: 83.2%; residual activity [26]: 113%; residual activity [27]: 104%; residual activity [28]: 87%; residual activity [30]: 103%; residual activity [31]: 104%; residual activity [32]: 112%; residual activity [33]: 92.5%; residual activity [34]: 104% and 105%; residual activity [35]: 103%; residual activity [36]: 98.1%; residual activity [37]: 94.5% and 99.4%; residual activity [38]: 96.8%; residual activity [39]: 99.5%; residual activity [40]: 126%

From the kinase profiling compilation of Christmann-Franck et al. (2016)
